According to ChEMBL document CHEMBL3603768, “Identification of 2-[2-(4-tert-butylphenyl)ethyl]-N-(4-fluorophenyl)-1,2,3,4-tetrahydroisoquinoline-6-sulfonamide (29) as an orally available MGAT2 inhibitor” (Bioorg Med Chem, 2015):
Converted amounts (≈) assume the structure as drawn.

Experiments:
[1] = Solubility in water; format: physicochemical
[2] = target: 2-acylglycerol O-acyltransferase 2 (Homo sapiens, UniProt Q3SYC2); assay: Inhibition of human recombinant MGAT2 assessed as reduction in enzyme-mediated deacylation of oleoyl-CoA incubated for 20 mins by CPM dye based fluorescence assay
[3] = Drug metabolism in human liver microsomes incubated for 15 mins; format: ADME; details: read-out: Drug metabolism
[4] = Drug metabolism in mouse liver microsomes incubated for 15 mins; format: ADME; details: read-out: Drug metabolism
[5] = target: 2-acylglycerol O-acyltransferase 2 (Mus musculus, UniProt Q80W94); assay: Inhibition of mouse recombinant MGAT2 assessed as reduction in enzyme-mediated deacylation of oleoyl-CoA incubated for 20 mins by CPM dye based fluorescence assay
[6] = Cmax in mouse at 100 mg/kg, po; format: ADME, organism-based; design: dose 100 mg/kg, route oral; details: in vivo
[7] = Solubility in FeSSIF solution at pH 5.0; format: physicochemical
[8] = AUC (0 to 4 hrs) in mouse at 100 mg/kg, po; format: ADME, organism-based; design: dose 100 mg/kg, time < 4 hr, route oral; details: in vivo
Mus musculus = assay: Inhibition of fat absorption in mouse assessed as reduction in plasma triglyceride AUC (0 to 4 hrs) level at 100 mg/kg, po by oral lipid tolerance test; format: functional

Chain of 2-acylglycerol O-acyltransferase 2 (Homo sapiens, UniProt Q3SYC2) (Q3SYC2 whole entry): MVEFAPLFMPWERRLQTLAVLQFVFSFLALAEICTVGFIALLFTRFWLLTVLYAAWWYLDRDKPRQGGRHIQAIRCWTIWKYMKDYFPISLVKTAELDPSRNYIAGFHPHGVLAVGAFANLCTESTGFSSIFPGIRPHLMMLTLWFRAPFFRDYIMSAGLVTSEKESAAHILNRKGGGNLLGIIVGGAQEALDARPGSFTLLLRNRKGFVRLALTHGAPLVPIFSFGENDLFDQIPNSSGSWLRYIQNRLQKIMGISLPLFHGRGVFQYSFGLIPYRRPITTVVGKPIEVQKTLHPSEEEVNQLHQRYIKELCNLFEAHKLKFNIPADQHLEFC
Chain of 2-acylglycerol O-acyltransferase 2 (Mus musculus, UniProt Q80W94) (Q80W94 whole entry): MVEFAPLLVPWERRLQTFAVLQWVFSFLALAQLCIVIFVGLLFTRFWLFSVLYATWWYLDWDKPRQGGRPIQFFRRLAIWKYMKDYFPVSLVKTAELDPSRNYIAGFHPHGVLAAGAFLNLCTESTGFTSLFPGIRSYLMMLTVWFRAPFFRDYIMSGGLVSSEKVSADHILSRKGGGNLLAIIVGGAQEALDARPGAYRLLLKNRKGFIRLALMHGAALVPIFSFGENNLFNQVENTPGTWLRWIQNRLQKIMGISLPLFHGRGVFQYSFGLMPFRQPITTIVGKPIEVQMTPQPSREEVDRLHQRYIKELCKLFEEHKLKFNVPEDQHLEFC

Compound | solubility [1] | IC50 [2] | further results
CC(C)(C)c1ccc(NC(=O)N2Cc3ccc(S(=O)(=O)Nc4ccc(F)cc4)cc3C2)cc1 | < 0.07 µg/mL | 594 nM | metabolised at 0.25 h [3]: 12.3%; metabolised at 0.25 h [4]: 70.9%; IC50 [5]: 1310 nM
CC(C)(C)c1ccc(NC(=O)N2Cc3ccc(S(=O)(=O)Nc4ccc(F)cc4F)cc3C2)cc1 | – | 685 nM | –
CC(C)(C)c1ccc(NC(=O)N2Cc3ccc(S(=O)(=O)Nc4ccc(F)cc4Cl)cc3C2)cc1 | – | 1110 nM | –
CCc1cc(F)ccc1NS(=O)(=O)c1ccc2c(c1)CN(C(=O)Nc1ccc(C(C)(C)C)cc1)C2 | – | 2490 nM | –
COc1cc(F)ccc1NS(=O)(=O)c1ccc2c(c1)CN(C(=O)Nc1ccc(C(C)(C)C)cc1)C2 | 0.607 µg/mL (≈ 1.22 µM) | – | Cmax [6]: 94.3 ng/mL; metabolised at 0.25 h [3]: 43.1%; solubility [7]: 28.3 µg/mL (≈ 56.9 µM); AUC(0-t) at 4 h [8]: 134 ng·h/mL; metabolised at 0.25 h [4]: 60.6%
CCOc1cc(F)ccc1NS(=O)(=O)c1ccc2c(c1)CN(C(=O)Nc1ccc(C(C)(C)C)cc1)C2 | – | 733 nM | –
CCCOc1cc(F)ccc1NS(=O)(=O)c1ccc2c(c1)CN(C(=O)Nc1ccc(C(C)(C)C)cc1)C2 | – | 2300 nM | –
COc1ccc(NS(=O)(=O)c2ccc3c(c2)CN(C(=O)Nc2ccc(C(C)(C)C)cc2)C3)c(OC)c1 | – | 3160 nM | –
COc1ccc(NS(=O)(=O)c2ccc3c(c2)CN(C(=O)Nc2ccc(C(C)(C)C)cc2)C3)c(F)c1 | < 0.06 µg/mL | – | metabolised at 0.25 h [3]: 20.6%; solubility [7]: 0.783 µg/mL (≈ 1.57 µM); metabolised at 0.25 h [4]: 51.1%
CCOc1ccc(NS(=O)(=O)c2ccc3c(c2)CN(C(=O)Nc2ccc(C(C)(C)C)cc2)C3)c(F)c1 | – | 5200 nM | –
CCCOc1ccc(NS(=O)(=O)c2ccc3c(c2)CN(C(=O)Nc2ccc(C(C)(C)C)cc2)C3)c(F)c1 | – | 1980 nM | –
CCCCOc1ccc(NS(=O)(=O)c2ccc3c(c2)CN(C(=O)Nc2ccc(C(C)(C)C)cc2)C3)c(F)c1 | – | 547 nM | –
CCCCCOc1ccc(NS(=O)(=O)c2ccc3c(c2)CN(C(=O)Nc2ccc(C(C)(C)C)cc2)C3)c(F)c1 | < 0.06 µg/mL | – | metabolised at 0.25 h [3]: 0.1%; solubility [7]: 10.2 µg/mL (≈ 18.4 µM); metabolised at 0.25 h [4]: 12.6%
CC(C)(C)c1ccc(CC(=O)N2Cc3ccc(S(=O)(=O)Nc4ccc(F)cc4)cc3C2)cc1 | < 0.11 µg/mL | 8070 nM | –
CC(C)(C)c1ccc(CCN2Cc3ccc(S(=O)(=O)Nc4ccc(F)cc4)cc3C2)cc1 | 270 µg/mL (≈ 597 µM) | 2120 nM | –
CC(C)(C)c1ccc(CCN2CCc3ccc(S(=O)(=O)Nc4ccc(F)cc4)cc3C2)cc1 | – | 3060 nM | –
CC(C)(C)c1ccc(CCN2CCc3cc(S(=O)(=O)Nc4ccc(F)cc4)ccc3C2)cc1 | 641 µg/mL (≈ 1370 µM) | 1520 nM | Cmax [6]: 1200 ng/mL; inhibition in vivo at 100 mg/kg (Mus musculus): 57%; metabolised at 0.25 h [3]: 14.6%; solubility [7]: 385 µg/mL (≈ 825 µM); AUC(0-t) at 4 h [8]: 1810 ng·h/mL; metabolised at 0.25 h [4]: 47.8%; IC50 [5]: 1170 nM
